Measured values reported in patent US11420970B1 (NOVARTIS AG, priority 2019, dated 2022).

What was measured:
[1] = test system: cellular H3K36me2 level in multiple myeloma cell line KMS11 (t(4;14)+); test: H3K36me2 cellular FRET assay in KMS11-Par line; format: cell-based; settings: cellular H3K36me2 level, FRET, read-out: H3K36me2 FRET in KMS11-Par
Description: H3K36Me2 Cellular FRET Assay in KMS11-Par Line
Fluorescence Resonance Energy Transfer (FRET) assay was used to test the ability of candidate compound to reduce cellular H3K36me2 level in multiple myeloma cell line KMS11 (t(4;14)+) (Horizon Discovery Ltd.).
Cells were treated with tested compounds at the desired concentration for 48 hours. […] Histone extract was incubated with Eu labeled anti-H3K36me2 antibody (abcam #ab ab9049) and d2 labeled anti-H3 antibody (abcam #ab1791) for 1 hour at room temperature. A Eu labeled anti-H3 antibody (CISBIO #64CUS000) was used for loading control. The abundancy of H3K36me2 or total H3 was measured by fluorescence signal on Perkin Elmer Envison machine.

[2] = target: NSD2 [1-1365] (Homo sapiens (Human), UniProt O96028); test: LC-MS/MS-based NSD2 enzymatic assay (SAH production); format: biochemical; settings: NSD2 biochemical activity, class symbols; read-out: NSD2 IC50
Chain of NSD2 [1-1365] (O96028 whole entry): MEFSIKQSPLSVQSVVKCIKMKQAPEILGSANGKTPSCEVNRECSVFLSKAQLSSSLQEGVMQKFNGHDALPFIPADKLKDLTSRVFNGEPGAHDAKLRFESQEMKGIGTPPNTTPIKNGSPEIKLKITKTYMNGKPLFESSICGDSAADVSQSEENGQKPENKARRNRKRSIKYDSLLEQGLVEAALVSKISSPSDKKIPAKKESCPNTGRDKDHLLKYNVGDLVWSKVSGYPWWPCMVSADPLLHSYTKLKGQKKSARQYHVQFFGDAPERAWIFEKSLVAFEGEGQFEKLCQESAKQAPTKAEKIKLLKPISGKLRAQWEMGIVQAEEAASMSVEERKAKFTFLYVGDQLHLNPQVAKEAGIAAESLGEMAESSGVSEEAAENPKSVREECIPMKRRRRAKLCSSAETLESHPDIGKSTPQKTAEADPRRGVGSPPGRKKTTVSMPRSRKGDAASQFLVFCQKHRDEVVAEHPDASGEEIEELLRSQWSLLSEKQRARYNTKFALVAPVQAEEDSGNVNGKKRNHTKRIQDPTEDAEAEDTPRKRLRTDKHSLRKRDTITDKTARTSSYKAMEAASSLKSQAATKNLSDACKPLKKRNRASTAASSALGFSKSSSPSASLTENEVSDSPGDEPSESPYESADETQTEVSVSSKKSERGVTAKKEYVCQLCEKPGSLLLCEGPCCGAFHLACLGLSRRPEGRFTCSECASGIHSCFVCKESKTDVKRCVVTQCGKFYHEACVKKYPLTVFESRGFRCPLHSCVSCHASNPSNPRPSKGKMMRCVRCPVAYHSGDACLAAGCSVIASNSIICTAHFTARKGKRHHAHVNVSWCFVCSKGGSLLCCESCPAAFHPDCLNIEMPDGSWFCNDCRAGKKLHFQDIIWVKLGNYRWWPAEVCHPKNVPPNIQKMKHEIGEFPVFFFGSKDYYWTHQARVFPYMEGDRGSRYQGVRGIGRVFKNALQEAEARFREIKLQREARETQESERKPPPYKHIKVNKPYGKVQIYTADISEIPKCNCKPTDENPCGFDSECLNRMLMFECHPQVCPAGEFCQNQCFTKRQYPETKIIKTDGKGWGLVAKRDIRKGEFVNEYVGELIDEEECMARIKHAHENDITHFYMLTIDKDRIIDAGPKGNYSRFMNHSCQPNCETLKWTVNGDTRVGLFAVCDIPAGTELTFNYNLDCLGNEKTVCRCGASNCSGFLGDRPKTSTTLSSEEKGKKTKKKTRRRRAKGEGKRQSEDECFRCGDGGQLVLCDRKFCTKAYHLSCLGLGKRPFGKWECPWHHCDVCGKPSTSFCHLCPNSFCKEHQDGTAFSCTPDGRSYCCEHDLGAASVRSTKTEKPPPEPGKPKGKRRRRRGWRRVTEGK
How it was run: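 SAH formed was measured by LC-MS/MS using d4-SAH as internal standard and an SAH calibration curve. Compounds were preincubated 20 min with NSD2 [1-1365] and SAM; mouse-liver nucleosome then started a 90 min room-temperature reaction (8 nM enzyme, 1 μM SAM, 400 nM nucleosome final, pH 8.0), stopped with TFA.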

[3] = test system: cellular H3K36me2 level in multiple myeloma cell line KMS11 (t(4;14)+); test: H3K36me2 cellular ELISA assay in KMS11-Par line; format: cell-based; settings: Homo sapiens, KMS-11; KMS11-Par line (t(4;14)+), 72 hours treatment, ELISA; read-out: H3K36me2 ELISA in KMS11-Par
How it was run: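 After 72 h compound exposure, HCl-extracted histones from KMS11 (t(4;14)+) cells were probed by ELISA for H3K36me2 against total H3 with a chemiluminescence read-out. Cells were plated at 1,250/well in Opti-MEM plus B-27 and N2 the day before. A parallel CellTiter-Glo plate tracked viability.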

[4] = test system: cellular H3K36me2 level in thyroid carcinoma cell line CGTH-W-1 (NSD2 E1099K); test: H3K36me2 cellular ELISA assay in CGTH-W-1 line; format: cell-based; settings: Homo sapiens, CGTH-W-1, 72 h, read-out: H3K36me2 ELISA in CGTH-W-1
How it was run: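 After 72 h compound treatment of NSD2 E1099K-mutant CGTH-W-1 cells, H3K36me2 and total H3 were quantified by ELISA with chemiluminescent read-out. A parallel-seeded plate gave cell viability by CellTiter-Glo.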

[5] = Homo sapiens, KMS-11, KMS11-Par line

| Structure (SMILES) | IC50 [1, 5] [nM] | IC50 [2] [nM] | IC50 ([1]; KMS11-Par line) [nM] | IC50 [3] [nM] | IC50 [4] [nM] |
| --- | --- | --- | --- | --- | --- |
| Nc1ncnc2c1ncn2Cc1cc(-c2ccc(F)cc2)ncc1N1CCC[C@](N)(COC2CCC2)C1 [Example 36, (R)-9-((5-(3-amino-3-(cyclobutoxymethyl)piperidin-1-yl)-2-(4-fluorophenyl)pyridin-4-yl)methyl)-9H-purin-6-amine] | 416 | 10 to 1000 | – | – | – |
| CNC(=O)CC1(N)CCCN(c2cnc(-c3ccc(F)c(F)c3)cc2Cn2cnc3c(N)ncc(Cl)c32)C1 (stereo not shown) [Example 67, 2-(3-amino-1-(4-((4-amino-7-chloro-1H-imidazo[4,5-c]pyridin-1-yl)methyl)-6-(3,4-difluorophenyl)pyridin-3-yl)piperidin-3-yl)-N-methylacetamide] | 4250 | 10 to 1000 | – | – | – |
| Nc1ncnc2c1ncn2Cc1cc(-c2cccc(F)c2)ncc1N1CCC[C@](N)(COC(F)F)C1 [Example 40, (R)-9-((5-(3-amino-3-((difluoromethoxy)methyl)piperidin-1-yl)-2-(3-fluorophenyl)pyridin-4-yl)methyl)-9H-purin-6-amine] | 770 | 10 to 1000 | – | – | – |
| COc1ccc(-c2cc(Cn3cnc4c(N)ncnc43)c(N3CC[C@@H](F)[C@@H](N)C3)cn2)c(F)c1 [Example 10, 9-((5-((3S,4R)-3-amino-4-fluoropiperidin-1-yl)-2-(2-fluoro-4-methoxyphenyl)pyridin-4-yl)methyl)-9H-purin-6-amine] | 7630 | 10 to 1000 | – | – | – |
| Nc1ncnc2c1ncn2Cc1cc(-c2ccc(F)cc2)ncc1N1CCC[C@](N)(COC(F)F)C1 [Example 44, (R)-9-((5-(3-amino-3-((difluoromethoxy)methyl)piperidin-1-yl)-2-(4-fluorophenyl)pyridin-4-yl)methyl)-9H-purin-6-amine] | 1620 | 10 to 1000 | – | – | – |
| COC[C@@]1(N)CCCN(c2cnc(-c3ccc(OC)c(F)c3)cc2Cn2cnc3c(N)ncnc32)C1 [Example 38, (R)-9-((5-(3-amino-3-(methoxymethyl)piperidin-1-yl)-2-(3-fluoro-4-methoxyphenyl)pyridin-4-yl)methyl)-9H-purin-6-amine] | – | 10 to 1000 | 721 | – | – |
| COc1ccc(-c2cc(Cn3cnc4c(N)ncnc43)c(N3CCC[C@](N)(COCC(F)(F)F)C3)cn2)cc1F [Example 39, (R)-9-((5-(3-amino-3-((2,2,2-trifluoroethoxy)methyl)piperidin-1-yl)-2-(3-fluoro-4-methoxyphenyl)pyridin-4-yl)methyl)-9H-purin-6-amine] | 2560 | 10 to 1000 | – | – | – |
| Nc1ncnc2c1ncn2Cc1cc(-c2cccc(F)c2)ncc1N1CCC(F)(F)C(N)C1 (stereo not shown) [Example 17, 9-((5-(3-amino-4,4-difluoropiperidin-1-yl)-2-(3-fluorophenyl)pyridin-4-yl)methyl)-9H-purin-6-amine] | 154000 | > 1000 | – | – | – |
| N#Cc1ccc(-c2cc(Cn3cnc4c(N)ncnc43)c(N3CCC[C@@H](N)C3)cn2)cc1Cl [Example 7, (R)-4-(4-((6-amino-9H-purin-9-yl)methyl)-5-(3-aminopiperidin-1-yl)pyridin-2-yl)-2-chlorobenzonitrile] | 15100 | 10 to 1000 | – | – | – |
| Nc1ncnc2c1ncn2Cc1cc(-c2ccc(F)cc2F)ncc1N1CCC[C@](N)([C@H](O)C(F)F)C1 [Example 151, (S)-1-((R)-3-amino-1-(4-((6-amino-9H-purin-9-yl)methyl)-6-(2,4-difluorophenyl)pyridin-3-yl)piperidin-3-yl)-2,2-difluoroethan-1-ol] | – | 10 to 1000 | – | 4190 | 842 |

More lines, main results first:

| IC50 [1, 5] [nM] | IC50 [2] [nM] | IC50 ([1]; KMS11-Par line) [nM] | Structure (SMILES) | IC50 [3] [nM] | IC50 [4] [nM] |
| --- | --- | --- | --- | --- | --- |
| 2640 | 1 to 10 | – | Nc1ncnc2c1ncn2Cc1cc(-c2cccc(F)c2)ncc1N1CCC[C@](N)(CC(=O)O)C1 [Example 58, (S)-2-(3-amino-1-(4-((6-amino-9H-purin-9-yl)methyl)-6-(3-fluorophenyl)pyridin-3-yl)piperidin-3-yl)acetic acid] | – | – |
| 33300 | 1 to 10 | – | CN(C)C(=O)C[C@@]1(N)CCCN(c2cnc(-c3ccc(F)c(F)c3)cc2Cn2cnc3c(N)nccc32)C1 [Example 59, (S)-2-(3-amino-1-(4-((4-amino-1H-imidazo[4,5-c]pyridin-1-yl)methyl)-6-(3,4-difluorophenyl)pyridin-3-yl)piperidin-3-yl)-N,N-dimethylacetamide] | – | – |
| 115 | 1 to 10 | – | COc1ccc(-c2cc(Cn3cnc4c(N)ncnc43)c(N3CCC[C@](N)(C(=O)OC(C)C)C3)cn2)cc1F [Example 81, isopropyl (R)-3-amino-1-(4-((6-amino-9H-purin-9-yl)methyl)-6-(3-fluoro-4-methoxyphenyl)pyridin-3-yl)piperidine-3-carboxylate] | – | – |
| 705 | 10 to 1000 | – | Nc1ncnc2c1ncn2Cc1cc(-c2ccc(F)cc2)ncc1N1CCC[C@](N)(COCC(F)(F)F)C1 [Example 45, (R)-9-((5-(3-amino-3-((2,2,2-trifluoroethoxy)methyl)piperidin-1-yl)-2-(4-fluorophenyl)pyridin-4-yl)methyl)-9H-purin-6-amine] | – | – |
| 4950 | 1 to 10 | – | COc1ccc(-c2cc(Cn3cnc4c(N)ncnc43)c(N3CCC[C@](N)(C(=O)N(C)C)C3)cn2)cc1F [Example 80, (R)-3-amino-1-(4-((6-amino-9H-purin-9-yl)methyl)-6-(3-fluoro-4-methoxyphenyl)pyridin-3-yl)-N,N-dimethylpiperidine-3-carboxamide] | – | – |
| 1240 | 10 to 1000 | – | Nc1ncnc2c1ncn2Cc1cc(-c2ccc(F)c(F)c2)ncc1N1CCC[C@](N)(COCC(F)(F)F)C1 [Example 43, (R)-9-((5-(3-amino-3-((2,2,2-trifluoroethoxy)methyl)piperidin-1-yl)-2-(3,4-difluorophenyl)pyridin-4-yl)methyl)-9H-purin-6-amine] | – | – |
| 1030 | 1 to 10 | – | CC(C)OC[C@@]1(N)CCCN(c2cnc(-c3ccc(F)c(F)c3)cc2Cn2cnc3c(N)ncnc32)C1 [Example 34, (R)-9-((5-(3-amino-3-(isopropoxymethyl)piperidin-1-yl)-2-(3,4-difluorophenyl)pyridin-4-yl)methyl)-9H-purin-6-amine] | – | – |
| 250000 | 10 to 1000 | – | CNC(=O)CC1(N)CCCN(c2cnc(-c3ccc(F)c(F)c3)cc2Cn2cnc3c(N)nccc32)C1 (stereo not shown) [Example 72, 2-(3-amino-1-(4-((4-amino-1H-imidazo[4,5-c]pyridin-1-yl)methyl)-6-(3,4-difluorophenyl)pyridin-3-yl)piperidin-3-yl)-N-methylacetamide] | – | – |
| 327 | 1 to 10 | – | Nc1ncnc2c1ncn2Cc1cc(-c2ccc(F)c(F)c2)ncc1N1CCC[C@](N)(Cc2nccs2)C1 [Example 53, (S)-9-((5-(3-amino-3-(thiazol-2-ylmethyl)piperidin-1-yl)-2-(3,4-difluorophenyl)pyridin-4-yl)methyl)-9H-purin-6-amine] | – | – |
| 451 | 1 to 10 | – | COC[C@@]1(N)CCCN(c2cnc(-c3cccc(F)c3)cc2Cn2cnc3c(N)ncnc32)C1 [Example 24, (R)-9-((5-(3-amino-3-(methoxymethyl)piperidin-1-yl)-2-(3-fluorophenyl)pyridin-4-yl)methyl)-9H-purin-6-amine] | – | – |
| 3900 | 10 to 1000 | – | COc1ccc(-c2cc(Cn3cnc4c(N)ncc(Cl)c43)c(N3CCC[C@@H](N)C3)cn2)cc1F [Example 19, (R)-1-((5-(3-aminopiperidin-1-yl)-2-(3-fluoro-4-methoxyphenyl)pyridin-4-yl)methyl)-7-chloro-1H-imidazo[4,5-c]pyridin-4-amine] | – | – |
| 501 | 1 to 10 | – | COC[C@@]1(N)CCCN(c2cnc(-c3cccc(Cl)c3)cc2Cn2cnc3c(N)ncnc32)C1 [Example 27, (R)-9-((5-(3-amino-3-(methoxymethyl)piperidin-1-yl)-2-(3-chlorophenyl)pyridin-4-yl)methyl)-9H-purin-6-amine] | – | – |
| 214 | 1 to 10 | – | Nc1ncnc2c1ncn2Cc1cc(-c2ccc(F)c(F)c2)ncc1N1CCC[C@](N)(COC2CC2)C1 [Example 22, (R)-9-((5-(3-amino-3-(cyclopropoxymethyl)piperidin-1-yl)-2-(3,4-difluorophenyl)pyridin-4-yl)methyl)-9H-purin-6-amine] | – | – |
| 473 | 1 to 10 | – | COC(=O)[C@@]1(N)CCCN(c2cnc(-c3cccc(F)c3)cc2Cn2cnc3c(N)ncnc32)C1 [Example 79, methyl (R)-3-amino-1-(4-((6-amino-9H-purin-9-yl)methyl)-6-(3-fluorophenyl)pyridin-3-yl)piperidine-3-carboxylate] | – | – |
